Test results from patent EP0406428B1, “PEPTIDE DERIVATIVES AND THEIR USE” (ASAHI GLASS COMPANY LTD., priority 1988, dated 1995).
Residues, ends and D or L forms follow the SMILES beside them.

Tests used:
trypsin = experiment: Peptide map: decomposition with trypsin, HPLC analysis; type: in vitro ADME; conditions: Tris-HCl 100 mM pH 8.5, 37°C, 24 hours, compared with linear peptide (GRGDSPA)
Procedure: Peptide was dissolved in 10 mg/mℓ of distilled water. 20 »l of this solution was diluted with addition of 180 »l of a buffer solution (Tris-HCl, 100 mM, pH 8.5). To this diluted solution, 5 »l of a trip solution (1 mg/mℓ […], CaCl₂ 10 mM) was added, and the mixture was kept at a temperature of 37°C for 24 hours. Then, 10 »l of 2N HCl was added to this mixed solution to complete the reaction. Out of this reaction liquid, 50 »l was provided for high performance liquid chromatography HPLC for its analysis. Condition for Analysis HP HPLC: Waters Model 510 Column: YMC-ODS Detection: A₂₁₄ Elution: Liquid A - 0.1% aqueous solution of TFA Liquid B - 0.1% acetonitrile solution of TFA Linear concentration gradient of: 0% B → 30% B (0 min.) (30 min.) Figure 1 is a graphical representation showing the result of analysis of the cyclic peptide synthesized in accordance with this Example. Also, the linear peptide (GRGDSPA) synthesized in accordance with (14) above was tested under the same conditions as mentioned above. The result of its analysis is shin in Figure 2.

blood platelet = experiment: Decrease in number of blood platelet in surgical operation using artificial heart and lung; type: in vivo; conditions: surgical operations using artificial heart and lung; control PBS
Procedure: The following Table indicates the results of examination of decrease in the number of the blood platelet, when 100 »g (per 1 kg of weight/minute) of [formula] was added for the purpose of the surgical operation. As the control, there was added PBS in place of peptide.

SMILES	decomposition by treatment with trypsin (trypsin)	inhibiting aggregation of blood platelet (blood platelet)
C[C@@H]1NC(=O)[C@@H]2CCCN2C(=O)[C@H](CO)NC(=O)[C@H](CC(=O)O)NC(=O)CNC(=O)[C@H](CCCNC(=N)N)NC(=O)CNC1=O [Example 1] (cyclo(RGDSPAG))	difficult to undergo further decomposition	
C[C@@H]1NC(=O)[C@@H]2CCCN2C(=O)[C@H](CO)NC(=O)[C@H](CC(=O)O)NC(=O)CNC(=O)[C@H](CCCNC(=N)N)NC(=O)CNC1=O [Example I00042] (cyclo(RGDSPAG))		capability of inhibiting such aggregation at its low concentration
